In patent publication US10568879B2 (GALAPAGOS NV, priority 2015, dated 2020):

Columns and labels:
human neutrophils = assay: Human neutrophil migration assay; type: cell-based; details: for IC50: Homo sapiens, Neutrophil, embelin at EC80 as chemotactic agent, 1 h at 37° C., read-out: Human neutrophil migration IC50
Procedure, shortened: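 Neutrophils freshly isolated from human buffy coats by dextran sedimentation and hypotonic lysis were preincubated with compound for 30 min at room temperature. Chemotaxis then ran in a Transwell system for 1 h at 37° C, 5% CO2. Migrated cells in the lower well were quantified by ATPlite luminescence.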

GPR84 [1] = target: T1, GPR84 (Homo sapiens, UniProt Q9NQS5); details: literature; cited from earlier work
T1 construct: expressed in transfected cells
T1 sequence (Q9NQS5 whole entry): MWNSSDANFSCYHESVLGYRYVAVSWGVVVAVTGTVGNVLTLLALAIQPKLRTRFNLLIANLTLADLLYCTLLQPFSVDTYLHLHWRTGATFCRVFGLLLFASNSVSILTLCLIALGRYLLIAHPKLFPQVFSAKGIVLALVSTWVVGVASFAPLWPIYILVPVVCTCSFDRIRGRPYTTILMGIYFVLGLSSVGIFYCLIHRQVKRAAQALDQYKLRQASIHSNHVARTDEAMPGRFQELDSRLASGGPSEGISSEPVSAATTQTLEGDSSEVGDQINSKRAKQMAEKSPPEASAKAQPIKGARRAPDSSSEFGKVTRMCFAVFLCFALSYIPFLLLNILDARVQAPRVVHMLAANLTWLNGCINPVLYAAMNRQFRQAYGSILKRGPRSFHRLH

[2] = Chemical stability in aqueous solutions with different pH; type: physicochemical; details: 2 μM; for % rem. (2 h) pH 1.2 / % rem. (24 h) pH 1.2: pH 1.2 hydrochloric acid buffer; for % rem. (2 h) pH 1.2 / % rem. (2 h) pH 5.0 / % rem. (2 h) pH 7.4 / % rem. (2 h) pH 9.0: 2 h incubation at 37° C.; for % rem. (24 h) pH 1.2 / % rem. (24 h) pH 5.0 / % rem. (24 h) pH 7.4 / % rem. (24 h) pH 9.0: 24 h incubation at 37° C.; for % rem. (2 h) pH 5.0 / % rem. (24 h) pH 5.0: pH 5.0 acetate buffer; for % rem. (2 h) pH 7.4 / % rem. (24 h) pH 7.4: pH 7.4 phosphate buffer; for % rem. (2 h) pH 9.0 / % rem. (24 h) pH 9.0: pH 9.0 Tris buffer
Procedure: This in vitro model is aimed at assessing the stability of a test compound in aqueous solutions with different pH. The decrease in parent compound is assessed by measuring the percentage parent remaining after 2 and 24 h incubation at 37° C.
A 2 mM DMSO stock is made for each test compound starting from dry matter. Then a 80 μM working solution of compound in DMSO is made by diluting the 2 mM DMSO.
The 80 μM working solution is diluted to a final concentration of 2 μM-2.5% DMSO in buffer with the desired pH (pH 1.2: hydrochloric acid buffer, pH 5.0: acetate buffer, pH 7.4: phosphate buffer, pH 9.0: Tris buffer) in 96-well plates with glass inserts (Cat no. 548-0201/548-0202, VWR-Thermo Scientific). Two replicates are run for each buffer solution and each time point.
One set of vials is incubated for 24 h at 200 rpm and another for 2 h at 200 rpm. To stop the reaction after the respective incubation times, 4 volumes of acetonitrile containing the internal standard (stop solution) are added to the reaction solution and the vials are vortexed briefly.
For the 0 h incubation, the stop solution with internal standard is first added to the buffer solution in glass vials and then the working solution of test compound (final concentration: 2 μM-2.5% DMSO) is added.
Propranolol is used as internal standard, but if the mass difference is too low with the test compound(s), another product is selected as internal standard. The concentration of the internal standard is chosen to obtain a peak area half of the average peak area of the test compounds and control at time point 0.
Analysis is performed on an LCMS-MS system (API2000 or API4000). The average of the peak areas of the two replicates from the parent compound at time 0 divided by the peak area of the internal standard is considered to be 100% remaining. The percentage remaining after 2 and 24 h of incubation is calculated for all other peaks and the percentage remaining after 2 and 24 h is reported.

GPR84 [3] = target: T1, GPR84; assay: GPR84 [35S]GTPγS binding assay; type: biochemical; details: 3,3′-diindolylmethane at EC80; membranes from stable cell line over expressing GPR84
Procedure, shortened: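 Antagonist-mode [35S]GTPγS binding on membranes from a GPR84-overexpressing stable line (GDP-preincubated), stimulated with 3,3′-diindolylmethane at EC80. Buffer 20 mM Tris pH 7.5, 5 mM MgCl2, 250 mM NaCl, saponin; 0.1 nM [35S]GTPγS, 90 min at room temperature, SPA bead read-out.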

[4] = test system: RAW264.7 murine macrophage-like cells; details: RAW264.7 cells stimulated with LPS; cited from earlier work

| % rem. (2 h) pH 1.2 [2] | % rem. (24 h) pH 1.2 [2] | % rem. (2 h) pH 5.0 [2] | % rem. (24 h) pH 5.0 [2] | % rem. (2 h) pH 7.4 [2] | % rem. (24 h) pH 7.4 [2] | % rem. (2 h) pH 9.0 [2] | % rem. (24 h) pH 9.0 [2] | IC50 (human neutrophils) [nM] | IC50 (GPR84 [3]) [nM] | SMILES | neutrophil chemotaxis induced by GPR84 agonists (human neutrophils) | GPR84 agonist activity (GPR84 [1]) | secretion of interleukin-12 p40 subunit (IL-12 p40) [4] |
| --- | --- | --- | --- | --- | --- | --- | --- | --- | --- | --- | --- | --- | --- |
| – | – | – | – | – | – | – | – | – | – | c1ccc2c(Cc3c[nH]c4ccccc34)c[nH]c2c1 [3,3′-diindolylmethane, reference compound] | induce neutrophil chemotaxis | some GPR84 agonist activity | – |
| – | – | – | – | – | – | – | – | – | – | CCCCCCCCNc1cc(=O)[nH]c(=O)[nH]1 [6-n-octylaminouracil] | – | some GPR84 agonist activity | – |
| *** (>80%) | *** (>80%) | *** (>80%) | *** (>80%) | *** (>80%) | *** (>80%) | *** (>80%) | *** (>80%) | 100 to 500 | 100 to 500 | COc1cc2c(cc1OC)-c1c(C)c(=O)cc(OC[C@@H]3COCCO3)n1CC2 [Compound 1, 4-[[(2S)-1,4-dioxan-2-yl]methoxy]-9,10-dimethoxy-1-methyl-6,7-dihydrobenzo[a]quinolizin-2-one] | – | – | – |
| *** (>80%) | *** (>80%) | *** (>80%) | *** (>80%) | *** (>80%) | *** (>80%) | *** (>80%) | *** (>80%) | 0.01 to 100 | 100 to 500 | Cc1c2n(c(NCC3CCCO3)cc1=O)CCc1cc(OCC(F)(F)F)ccc1-2 (centres unmarked) [Compound 8, 1-methyl-4-(tetrahydrofuran-2-ylmethylamino)-9-(2,2,2-trifluoroethoxy)-6,7-dihydrobenzo[a]quinolizin-2-one] | – | – | – |
| *** (>80%) | *** (>80%) | *** (>80%) | *** (>80%) | *** (>80%) | *** (>80%) | *** (>80%) | *** (>80%) | 0.01 to 100 | 0.01 to 100 | COc1ccc2c(c1OC)CCn1c(NCC3CCCO3)cc(=O)c(C)c1-2 (centres unmarked) [Compound 10, 8,9-dimethoxy-1-methyl-4-(tetrahydrofuran-2-ylmethylamino)-6,7-dihydrobenzo[a]quinolizin-2-one] | – | – | – |
| *** (>80%) | *** (>80%) | *** (>80%) | *** (>80%) | *** (>80%) | *** (>80%) | *** (>80%) | *** (>80%) | 100 to 500 | 100 to 500 | COc1ccc2c(c1OC)CCn1c(OC[C@@H]3COCCO3)cc(=O)c(C)c1-2 [Compound 12, 4-[[(2S)-1,4-dioxan-2-yl]methoxy]-8,9-dimethoxy-1-methyl-6,7-dihydrobenzo[a]quinolizin-2-one] | – | – | – |
| *** (>80%) | *** (>80%) | *** (>80%) | *** (>80%) | *** (>80%) | *** (>80%) | *** (>80%) | *** (>80%) | 0.01 to 100 | 0.01 to 100 | Cc1c2n(c(OC[C@@H]3COCCO3)cc1=O)CCc1cc(OCC(F)(F)F)ccc1-2 [Compound 18, 4-[[(2S)-1,4-dioxan-2-yl]methoxy]-1-methyl-9-(2,2,2-trifluoroethoxy)-6,7-dihydrobenzo[a]quinolizin-2-one] | – | – | – |
| – | – | – | – | – | – | – | – | – | – | CCCCCCCCCC(=O)O [capric acid] | – | – | dose dependently increased |
| – | – | – | – | – | – | – | – | – | – | CCCCCCCCCCCC(=O)O [lauric acid] | – | – | dose dependently increased |
| – | – | – | – | – | – | – | – | – | – | CCCCCCCCCCC(=O)O [undecanoic acid] | – | – | dose dependently increased |
